Test results: PubChem BioAssay AID256 (DTP/NCI, 2004)
“And” between values parts separate entries of the source, which are not always exact repeats. Equal entries are not always repeated. Toxic doses and inconclusive results are not listed.

Tested on: CD2F1 mice, L1210 leukemia ip, survival T/C
Assay: NCI In Vivo Anticancer Drug Screen. Data for tumor model L1210 Leukemia (intraperitoneal) in CD2F1 (CDF1) mice
Details: higher = longer survival
Summary of the method: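 In this screen, transplantable tumors were grown in mice given either the compound or its vehicle. Results were expressed as the treated measurement relative to the control measurement.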

[1] = endpoint: mean survival time, dose: 100.0 mg/kg/injection, schedule: Q01DX009 (ip), vehicle: saline with Tween-80
[2] = endpoint: mean survival time, dose: 200.0 mg/kg/injection, schedule: Q01DX009 (ip), vehicle: saline with Tween-80
[3] = endpoint: mean survival time, dose: 100.0 mg/kg/injection, schedule: Q01DX001 (ip), vehicle: saline with Tween-80
[4] = endpoint: mean survival time, dose: 200.0 mg/kg/injection, schedule: Q01DX001 (ip), vehicle: saline with Tween-80
[5] = endpoint: mean survival time, dose: 400.0 mg/kg/injection, schedule: Q01DX001 (ip), vehicle: saline with Tween-80
[6] = endpoint: mean survival time, dose: 100.0 mg/kg/injection, schedule: Q04DX003 (ip), vehicle: saline with Tween-80
[7] = endpoint: mean survival time, dose: 200.0 mg/kg/injection, schedule: Q04DX003 (ip), vehicle: saline with Tween-80
[8] = endpoint: mean survival time, dose: 400.0 mg/kg/injection, schedule: Q04DX003 (ip), vehicle: saline with Tween-80
[9] = endpoint: mean survival time, dose: 100.0 mg/kg/injection, schedule: Q04DX003 (ip), vehicle: Klucel (hydroxypropylcellulose) (HPC)
[10] = endpoint: mean survival time, dose: 200.0 mg/kg/injection, schedule: Q04DX003 (ip), vehicle: Klucel (hydroxypropylcellulose) (HPC)

SMILES: CCCCCCCCC1SC1CCCCCCCC(=O)OCCN(C)C(=O)CCCCCCCC1SC1CCCCCCCC (centres undefined)
- T/C (endpoint: mean survival time, dose: 100.0 mg/kg/injection, schedule: Q04DX003 (ip), vehicle: other): 100 % of control
- T/C (endpoint: mean survival time, dose: 200.0 mg/kg/injection, schedule: Q04DX003 (ip), vehicle: other): 92 % of control
- T/C (endpoint: mean survival time, dose: 400.0 mg/kg/injection, schedule: Q04DX003 (ip), vehicle: other): 90 % of control

SMILES: c1ccc2c(c1)ncc1cc3c(cc12)[nH]c1ccccc13
- T/C (endpoint: mean survival time, dose: 100.0 mg/kg/injection, schedule: Q01DX001 (ip), vehicle: other): 96 % of control
- T/C (endpoint: mean survival time, dose: 200.0 mg/kg/injection, schedule: Q01DX001 (ip), vehicle: other): 101 % of control
- T/C (endpoint: mean survival time, dose: 400.0 mg/kg/injection, schedule: Q01DX001 (ip), vehicle: other): 104 % of control

SMILES: O=P(CCCCl)(OCCCCl)OCCCCl
- T/C (endpoint: mean survival time, dose: 100.0 mg/kg/injection, schedule: Q01DX009 (ip), vehicle: saline): 100 % of control
- T/C (endpoint: mean survival time, dose: 200.0 mg/kg/injection, schedule: Q01DX009 (ip), vehicle: saline): 101 % of control
- T/C (endpoint: mean survival time, dose: 400.0 mg/kg/injection, schedule: Q01DX009 (ip), vehicle: saline): 100 % of control

SMILES: O=C1c2cccc3cc([N+](=O)[O-])cc(c23)C(=O)N1CCN1CCCC1
- T/C (endpoint: mean survival time, dose: 1.5 mg/kg/injection, schedule: Q01DX009 (ip), vehicle: saline with Tween-80): 107 % of control
- T/C (endpoint: mean survival time, dose: 1.5 mg/kg/injection, schedule: Q01DX009 (ip), vehicle: saline): 100 % of control
- T/C (endpoint: mean survival time, dose: 3.0 mg/kg/injection, schedule: Q01DX009 (ip), vehicle: saline with Tween-80): 113 % of control
- T/C (endpoint: mean survival time, dose: 3.0 mg/kg/injection, schedule: Q01DX009 (ip), vehicle: saline): 100 % of control
- T/C (endpoint: mean survival time, dose: 6.0 mg/kg/injection, schedule: Q01DX009 (ip), vehicle: saline): 113 % of control
- T/C (endpoint: mean survival time, dose: 12.0 mg/kg/injection, schedule: Q01DX009 (ip), vehicle: saline): 115 % of control
- T/C (endpoint: mean survival time, dose: 24.0 mg/kg/injection, schedule: Q01DX009 (ip), vehicle: saline with Tween-80): 91 % of control
- T/C (endpoint: mean survival time, dose: 24.0 mg/kg/injection, schedule: Q01DX009 (ip), vehicle: saline): 111 % of control
- T/C (endpoint: median survival time, dose: 1.56 mg/kg/injection, schedule: Q01DX009 (ip), vehicle: saline with Tween-80): 96 % of control
- T/C (endpoint: median survival time, dose: 3.12 mg/kg/injection, schedule: Q01DX009 (ip), vehicle: saline with Tween-80): 101 % of control and 107 % of control
- T/C (endpoint: median survival time, dose: 6.25 mg/kg/injection, schedule: Q01DX009 (ip), vehicle: saline with Tween-80): 104 % of control and 107 % of control
- T/C (endpoint: median survival time, dose: 12.5 mg/kg/injection, schedule: Q01DX009 (ip), vehicle: saline with Tween-80): 117 % of control and 119 % of control
- T/C (endpoint: median survival time, dose: 50.0 mg/kg/injection, schedule: Q01DX009 (ip), vehicle: saline with Tween-80): 86 % of control

SMILES: COc1cc(Cl)ccc1NC(=O)Nc1ccc(C(=O)O)cc1
- T/C (endpoint: mean survival time, dose: 50.0 mg/kg/injection, schedule: Q01DX009 (ip), vehicle: saline with Tween-80): 95 % of control
- T/C [1]: 95 % of control
- T/C [2]: 91 % of control

SMILES: CCOc1cccc(Cc2cn(Cc3ccc(NC(=O)c4ccc(S(=O)(=O)F)cc4)cc3)c(=O)[nH]c2=O)c1
- T/C [3]: 101 % of control
- T/C [4]: 95 % of control
- T/C [5]: 95 % of control

SMILES: O=C(COc1cccc(Cl)c1)NCc1ccccc1
- T/C [6]: 99 % of control
- T/C [7]: 96 % of control
- T/C [8]: 99 % of control

SMILES: CC12CCC(=O)C=C1CCC1C2C(=O)CC2(C)C1CCC2(O)C(=O)Cn1c(=O)cc[nH]c1=O (centres undefined)
- T/C (endpoint: mean survival time, dose: 12.5 mg/kg/injection, schedule: Q04DX003 (ip), vehicle: Klucel (hydroxypropylcellulose) (HPC)): 96 % of control
- T/C (endpoint: mean survival time, dose: 25.0 mg/kg/injection, schedule: Q04DX003 (ip), vehicle: Klucel (hydroxypropylcellulose) (HPC)): 96 % of control
- T/C (endpoint: mean survival time, dose: 50.0 mg/kg/injection, schedule: Q04DX003 (ip), vehicle: Klucel (hydroxypropylcellulose) (HPC)): 103 % of control
- T/C [9]: 97 % of control
- T/C [10]: 97 % of control

SMILES: O=C(C[n+]1ccccc1/C=N/O)c1ccccc1
- T/C (endpoint: mean survival time, dose: 50.0 mg/kg/injection, schedule: Q04DX003 (ip), vehicle: saline with Tween-80): 91 % of control

SMILES: COc1ccc([C@@]23Oc4cc(OC)cc(OC)c4[C@]2(O)[C@H](O)[C@H](C(=O)N(C)C)[C@H]3c2ccccc2)cc1
- T/C (endpoint: median survival time, dose: 0.25 mg/kg/injection, schedule: Q01DX009 (ip), vehicle: Klucel (hydroxypropylcellulose) (HPC)): 101 % of control
- T/C (endpoint: median survival time, dose: 0.5 mg/kg/injection, schedule: Q01DX009 (ip), vehicle: Klucel (hydroxypropylcellulose) (HPC)): 97 % of control
- T/C (endpoint: median survival time, dose: 1.0 mg/kg/injection, schedule: Q01DX009 (ip), vehicle: Klucel (hydroxypropylcellulose) (HPC)): 102 % of control
- T/C (endpoint: median survival time, dose: 2.0 mg/kg/injection, schedule: Q01DX009 (ip), vehicle: Klucel (hydroxypropylcellulose) (HPC)): 113 % of control
- T/C (endpoint: median survival time, dose: 4.0 mg/kg/injection, schedule: Q01DX009 (ip), vehicle: Klucel (hydroxypropylcellulose) (HPC)): 108 % of control

SMILES: C1=C\CCCCCCCC/1
- T/C [6]: 100 % of control
- T/C [8]: 100 % of control

SMILES: O=S(=O)(Cc1ccccc1)CS(=O)(=O)Cc1ccccc1
- T/C [3]: 98 % of control
- T/C [4]: 97 % of control
- T/C [5]: 86 % of control

SMILES: CCOC(=O)CCC(NC(=O)c1ccc(NCc2ccc3nc(N)nc(N)c3c2C)cc1)C(=O)OCC (centres undefined)
- T/C (endpoint: mean survival time, dose: 0.01 mg/kg/injection, schedule: Q01DX009 (ip), vehicle: saline + alcohol): 104 % of control
- T/C (endpoint: mean survival time, dose: 0.02 mg/kg/injection, schedule: Q01DX009 (ip), vehicle: saline + alcohol): 116 % of control
- T/C (endpoint: mean survival time, dose: 0.03 mg/kg/injection, schedule: Q01DX009 (ip), vehicle: saline + alcohol): 113 % of control
- T/C (endpoint: mean survival time, dose: 0.06 mg/kg/injection, schedule: Q01DX001 (ip), vehicle: saline + alcohol): 98 % of control and 101 % of control
- T/C (endpoint: mean survival time, dose: 0.06 mg/kg/injection, schedule: Q01DX009 (ip), vehicle: saline + alcohol): 113 % of control
- T/C (endpoint: mean survival time, dose: 0.11 mg/kg/injection, schedule: Q01DX009 (ip), vehicle: saline + alcohol): 110 % of control
- T/C (endpoint: mean survival time, dose: 0.12 mg/kg/injection, schedule: Q01DX001 (ip), vehicle: saline + alcohol): 112 % of control
- T/C (endpoint: mean survival time, dose: 0.13 mg/kg/injection, schedule: Q01DX001 (ip), vehicle: saline + alcohol): 104 % of control
- T/C (endpoint: mean survival time, dose: 0.25 mg/kg/injection, schedule: Q01DX001 (ip), vehicle: saline + alcohol): 121 % of control and 111 % of control
- T/C (endpoint: mean survival time, dose: 1.0 mg/kg/injection, schedule: Q01DX001 (ip), vehicle: saline + alcohol): 122 % of control

SMILES: CCN(CC)c1cc(Nc2c3ccc(Cl)cc3nc3cc(Cl)ccc23)ccc1O
- T/C [1]: 102 % of control
- T/C [6]: 97 % of control
- T/C [2]: 104 % of control
- T/C [7]: 100 % of control
- T/C [8]: 117 % of control

SMILES: O=C(O)C1CCC=CC1c1ccccc1 (centres undefined)
- T/C (endpoint: mean survival time, dose: 100.0 mg/kg/injection, schedule: Q04DX002 (ip), vehicle: saline with Tween-80): 95 % of control
- T/C (endpoint: mean survival time, dose: 200.0 mg/kg/injection, schedule: Q04DX002 (ip), vehicle: saline with Tween-80): 102 % of control
- T/C (endpoint: mean survival time, dose: 400.0 mg/kg/injection, schedule: Q04DX002 (ip), vehicle: saline with Tween-80): 91 % of control

SMILES: CC(=O)C1=CCC2[C@H]3CC=C4C[C@H](O)CC[C@@]4(C)C3CC[C@@]12C (some centres undefined)
- T/C [9]: 103 % of control
- T/C [10]: 103 % of control
- T/C (endpoint: mean survival time, dose: 400.0 mg/kg/injection, schedule: Q04DX003 (ip), vehicle: Klucel (hydroxypropylcellulose) (HPC)): 103 % of control

SMILES: NNc1nnc(Cl)cc1N
- T/C [6]: 109 % of control

SMILES: COC(=O)C1CC2C(=O)CCCCCCC2C1O (centres undefined)
- T/C [3]: 93 % of control
- T/C [4]: 101 % of control
- T/C [5]: 98 % of control

SMILES: NC(=S)c1c2ccccc2nn1C1OC(CO)C(O)C1O (centres undefined)
- T/C (endpoint: mean survival time, dose: 100.0 mg/kg/injection, schedule: Q01DX005 (ip), vehicle: saline): 98 % of control
- T/C (endpoint: mean survival time, dose: 200.0 mg/kg/injection, schedule: Q01DX005 (ip), vehicle: saline): 101 % of control

SMILES: Cc1cc2nc(CN)[nH]c2cc1C
- T/C (endpoint: mean survival time, dose: 100.0 mg/kg/injection, schedule: Q04DX003 (ip), vehicle: saline): 98 % of control
- T/C (endpoint: mean survival time, dose: 200.0 mg/kg/injection, schedule: Q04DX003 (ip), vehicle: saline): 95 % of control

SMILES: O=C(O)c1ccc(O)cc1C(=O)O.[NH-]C1CCCCC1[NH-].[Pt+2]
- T/C (endpoint: mean survival time, dose: 1.17 mg/kg/injection, schedule: Q04DX003 (ip), vehicle: other): 168 % of control
- T/C (endpoint: mean survival time, dose: 9.38 mg/kg/injection, schedule: Q04DX003 (ip), vehicle: other): 194 % of control
- T/C (endpoint: mean survival time, dose: 18.75 mg/kg/injection, schedule: Q04DX003 (ip), vehicle: other): 189 % of control
